Each molecule was assayed against T1, rat B1R (bradykinin receptor 1) (Rattus norvegicus, UniProt P97583) (assay: FLIPR Ca2+ assay (Fluo-4) on CHO K1 cells stably transfected with the B1R gene of the rat (rB1R cells): % inhibition at 10 μM / IC50, agonist Des-Arg9-bradykinin). Conditions: CHO-K1, rat B1R.
T1 construct: expressed in transfected cells; host or cells: CHO K1 cells
T1 sequence (P97583 1-337): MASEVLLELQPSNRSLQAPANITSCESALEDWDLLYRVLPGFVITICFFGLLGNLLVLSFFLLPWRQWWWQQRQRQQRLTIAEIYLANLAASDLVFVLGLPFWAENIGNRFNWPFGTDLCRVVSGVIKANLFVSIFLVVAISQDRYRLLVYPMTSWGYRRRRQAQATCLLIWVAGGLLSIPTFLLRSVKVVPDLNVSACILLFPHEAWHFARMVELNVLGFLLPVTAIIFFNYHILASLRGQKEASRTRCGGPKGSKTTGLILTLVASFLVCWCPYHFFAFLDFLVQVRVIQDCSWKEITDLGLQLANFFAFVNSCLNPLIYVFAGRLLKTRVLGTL
Type: cell-based
Outline: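 Loading with Fluo-4 occurs for 60 min at 37 °C, or alternatively in buffer A, before FLIPR measurement. Compounds are applied, incubated 10–20 min, and then the EC80 agonist is added. Antagonism appears as reduced peak Ca2+ signal relative to maximal inhibition.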
In the case of `CN(C)c1ncc(CN2CCC3(CC2)CCN(C(=O)c2ccc4c(c2)C(NC(=O)c2c(F)cccc2Cl)CC4)C3)cn1` (stereo not drawn) [IND_CC-773, 2-Chloro-N-[6-[8-[(2-dimethylamino-pyrimidin-5-yl)-methyl]-2,8-diazaspiro-[4.5]decane-2-carbonyl]-2,3-dihydro-1H-inden-1-yl]-6-fluoro-benzamide], the inhibition at 10 µM is reported as 80%. `O=C(NC1CCc2ccc(C(=O)N3CCC4(CCN(Cc5ccc6ncccc6c5)CC4)C3)cc21)c1c(F)cccc1Cl` (stereo not drawn) [IND_CC-774, 2-Chloro-6-fluoro-N-[6-[8-(quinolin-6-yl-methyl)-2,8-diazaspiro[4.5]decane-2-carbonyl]-2,3-dihydro-1H-inden-1-yl]-benzamide] gave an inhibition at 10 µM of 81%. For `O=C(NC1CCc2ccc(C(=O)N3CCC4(CCN(Cc5ccc6nccnc6c5)CC4)C3)cc21)c1c(F)cccc1Cl` (stereo not drawn) [IND_CC-775, 2-Chloro-6-fluoro-N-[6-[8-(quinoxalin-6-yl-methyl)-2,8-diazaspiro[4.5]decane-2-carbonyl]-2,3-dihydro-1H-inden-1-yl]-benzamide], the inhibition at 10 µM was 98%. Work on `Cn1nnc2cc(CN3CCC4(CC3)CCN(C(=O)c3ccc5c(c3)C(NC(=O)c3c(F)cccc3Cl)CC5)C4)ccc21` (stereo not drawn) [IND_CC-776, 2-Chloro-6-fluoro-N-[6-[8-[(1-methyl-1H-benzotriazol-5-yl)-methyl]-2,8-diazaspiro[4.5]decane-2-carbonyl]-2,3-dihydro-1H-inden-1-yl]-benzamide] yielded an inhibition at 10 µM of 99%. In the case of `CC(C)CN1CCC2(CC1)CCN(C(=O)c1ccc3c(c1)C(NC(=O)c1c(F)cccc1Cl)CC3)C2` (stereo not drawn) [IND_CC-777, 2-Chloro-6-fluoro-N-[6-[8-(2-methyl-propyl)-2,8-diazaspiro[4.5]decane-2-carbonyl]-2,3-dihydro-1H-inden-1-yl]-benzamide], the inhibition at 10 µM is reported as 83%. `CCC(CC)CN1CCC2(CC1)CCN(C(=O)c1ccc3c(c1)C(NC(=O)c1c(F)cccc1Cl)CC3)C2` (stereo not drawn) [IND_CC-778, 2-Chloro-N-[6-[8-(2-ethyl-butyl)-2,8-diazaspiro[4.5]decane-2-carbonyl]-2,3-dihydro-1H-inden-1-yl]-6-fluoro-benzamide] showed an inhibition at 10 µM of 105%. Work on `O=C(NC1CCc2ccc(C(=O)N3CCC4(CCN(CC5CCCCC5)CC4)C3)cc21)c1c(F)cccc1Cl` (stereo not drawn) [IND_CC-779, 2-Chloro-N-[6-[8-(cyclohexyl-methyl)-2,8-diazaspiro[4.5]decane-2-carbonyl]-2,3-dihydro-1H-inden-1-yl]-6-fluoro-benzamide] yielded an inhibition at 10 µM of 69%. `O=C(NC1CCc2ccc(C(=O)N3CCC4(CCN(CCc5ccccc5)CC4)C3)cc21)c1c(F)cccc1Cl` (stereo not drawn) [IND_CC-780, 2-Chloro-6-fluoro-N-[6-(8-phenethyl-2,8-diazaspiro[4.5]decane-2-carbonyl)-2,3-dihydro-1H-inden-1-yl]-benzamide] gave an inhibition at 10 µM of 101%. `O=C(NC1CCc2ccc(C(=O)N3CCC4(CCN(CCCc5cccc(F)c5)CC4)C3)cc21)c1c(F)cccc1Cl` (stereo not drawn) [IND_CC-781, 2-Chloro-6-fluoro-N-[6-[8-[3-(3-fluorophenyl)-propyl]-2,8-diazaspiro[4.5]decane-2-carbonyl]-2,3-dihydro-1H-inden-1-yl]-benzamide] was tested, and the inhibition at 10 µM was 106%. Molecule `O=C(NC1CCc2ccc(C(=O)N3CCC4(CCN(CCCc5ccc(F)cc5)CC4)C3)cc21)c1c(F)cccc1Cl` (stereo not drawn) [IND_CC-782, 2-Chloro-6-fluoro-N-[6-[8-[3-(4-fluorophenyl)-propyl]-2,8-diazaspiro[4.5]decane-2-carbonyl]-2,3-dihydro-1H-inden-1-yl]-benzamide] has an inhibition at 10 µM of 107%. Work on `O=C(NC1CCc2ccc(C(=O)N3CCC4(CCN(Cc5ccc[nH]5)CC4)CC3)cc21)c1c(F)cccc1Cl` (stereo not drawn) [IND_CC-783, 2-Chloro-6-fluoro-N-[6-[9-(1H-pyrrol-2-yl-methyl)-3,9-diazaspiro[5.5]undecane-3-carbonyl]-2,3-dihydro-1H-inden-1-yl]-benzamide] yielded an inhibition at 10 µM of 102%. `O=C(NC1CCc2ccc(C(=O)N3CCC4(CCN(Cc5ccccn5)CC4)CC3)cc21)c1c(F)cccc1Cl` (stereo not drawn) [IND_CC-784, 2-Chloro-6-fluoro-N-[6-[9-(pyridin-2-yl-methyl)-3,9-diazaspiro[5.5]undecane-3-carbonyl]-2,3-dihydro-1H-inden-1-yl]-benzamide] showed an inhibition at 10 µM of 99%. `O=C(NC1CCc2ccc(C(=O)N3CCC4(CCN(Cc5ccncc5)CC4)CC3)cc21)c1c(F)cccc1Cl` (stereo not drawn) [IND_CC-785, 2-Chloro-6-fluoro-N-[6-[9-(pyridin-4-yl-methyl)-3,9-diazaspiro[5.5]undecane-3-carbonyl]-2,3-dihydro-1H-inden-1-yl]-benzamide] showed an inhibition at 10 µM of 98%. Work on `O=C(NC1CCc2ccc(C(=O)N3CCC4(CCN(Cc5cccnc5)CC4)CC3)cc21)c1c(F)cccc1Cl` (stereo not drawn) [IND_CC-786, 2-Chloro-6-fluoro-N-[6-[9-(pyridin-3-yl-methyl)-3,9-diazaspiro[5.5]undecane-3-carbonyl]-2,3-dihydro-1H-inden-1-yl]-benzamide] yielded an inhibition at 10 µM of 104%. In the case of `Cn1cccc1CN1CCC2(CC1)CCN(C(=O)c1ccc3c(c1)C(NC(=O)c1c(F)cccc1Cl)CC3)CC2` (stereo not drawn) [IND_CC-787, 2-Chloro-6-fluoro-N-[6-[9-[(1-methyl-1H-pyrrol-2-yl)-methyl]-3,9-diazaspiro[5.5]undecane-3-carbonyl]-2,3-dihydro-1H-inden-1-yl]-benzamide], the inhibition at 10 µM is reported as 93%. With `O=C(NC1CCc2ccc(C(=O)N3CCC4(CCN(Cc5c(F)cccc5F)CC4)CC3)cc21)c1c(F)cccc1Cl` (stereo not drawn) [IND_CC-788, 2-Chloro-N-[6-[9-[(2,6-difluoro-phenyl)-methyl]-3,9-diazaspiro[5.5]undecane-3-carbonyl]-2,3-dihydro-1H-inden-1-yl]-6-fluoro-benzamide] the inhibition at 10 µM was 71%. `O=C(NC1CCc2ccc(C(=O)N3CCC4(CCN(Cc5ccc(F)c(F)c5)CC4)CC3)cc21)c1c(F)cccc1Cl` (stereo not drawn) [IND_CC-789, 2-Chloro-N-[6-[9-[(3,4-difluoro-phenyl)-methyl]-3,9-diazaspiro[5.5]undecane-3-carbonyl]-2,3-dihydro-1H-inden-1-yl]-6-fluoro-benzamide] gave an inhibition at 10 µM of 98%. `O=C(NC1CCc2ccc(C(=O)N3CCC4(CCN(Cc5cc(F)ccc5F)CC4)CC3)cc21)c1c(F)cccc1Cl` (stereo not drawn) [IND_CC-790, 2-Chloro-N-[6-[9-[(2,5-difluoro-phenyl)-methyl]-3,9-diazaspiro[5.5]undecane-3-carbonyl]-2,3-dihydro-1H-inden-1-yl]-6-fluoro-benzamide] gave an inhibition at 10 µM of 96%. `O=C(NC1CCc2ccc(C(=O)N3CCC4(CCN(Cc5ccc(F)cc5F)CC4)CC3)cc21)c1c(F)cccc1Cl` (stereo not drawn) [IND_CC-791, 2-Chloro-N-[6-[9-[(2,4-difluoro-phenyl)-methyl]-3,9-diazaspiro[5.5]undecane-3-carbonyl]-2,3-dihydro-1H-inden-1-yl]-6-fluoro-benzamide] showed an inhibition at 10 µM of 91%. `COc1ccc(CN2CCC3(CC2)CCN(C(=O)c2ccc4c(c2)C(NC(=O)c2c(F)cccc2Cl)CC4)CC3)cc1F` (stereo not drawn) [IND_CC-792, 2-Chloro-6-fluoro-N-[6-[9-[(3-fluoro-4-methoxy-phenyl)-methyl]-3,9-diazaspiro[5.5]undecane-3-carbonyl]-2,3-dihydro-1H-inden-1-yl]-benzamide] gave an inhibition at 10 µM of 89%. `COc1cccc(F)c1CN1CCC2(CC1)CCN(C(=O)c1ccc3c(c1)C(NC(=O)c1c(F)cccc1Cl)CC3)CC2` (stereo not drawn) [IND_CC-793, 2-Chloro-6-fluoro-N-[6-[9-[(2-fluoro-6-methoxy-phenyl)-methyl]-3,9-diazaspiro[5.5]undecane-3-carbonyl]-2,3-dihydro-1H-inden-1-yl]-benzamide] was tested, and the inhibition at 10 µM was 79%.

Reference: patent publication US8455475B2 (Gruenenthal GmbH, priority 2009, dated 2013)
